From the supplement of paper PMC10307832

Key:
Assay in all cases: relative viability (nuclei count vs DMSO), 5 days (fraction); higher = more cells survive
Carfilzomib + Vorinostat = compound: CC(C)C[C@H](NC(=O)[C@H](CCc1ccccc1)NC(=O)CN1CCOCC1)C(=O)N[C@@H](Cc1ccccc1)C(=O)N[C@@H](CC(C)C)C(=O)[C@@]1(C)CO1 [Carfilzomib] + O=C(CCCCCCC(=O)Nc1ccccc1)NO [Vorinostat] (partner 1 µM)
How it was run: (§1)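 Nuclei were stained with Hoechst during a one-step fixation (final 0.05% Triton X-100, 1% formaldehyde, 1 ug/ml Hoechst) carried out 5 days after dosing, then counted on 4× images. The cells, lung cancer lines in 1536-well plates, had been dosed by pin tool the day after seeding with one drug alone or a fixed anchor-drug dose plus five library-drug doses (not always all listed) in √10 steps. Relative viability is the nuclei count in treated wells divided by that in vehicle wells, and each value is the median of duplicate plates.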

Olaparib + Crizotinib = compound: O=C(c1cc(Cc2n[nH]c(=O)c3ccccc23)ccc1F)N1CCN(C(=O)C2CC2)CC1 [Olaparib] + C[C@@H](Oc1cc(-c2cnn(C3CCNCC3)c2)cnc1N)c1c(Cl)ccc(F)c1Cl [Crizotinib] (partner 1 µM)
How it was run: as §1

Crizotinib + Lapatinib = compound: C[C@@H](Oc1cc(-c2cnn(C3CCNCC3)c2)cnc1N)c1c(Cl)ccc(F)c1Cl [Crizotinib] + CS(=O)(=O)CCNCc1ccc(-c2ccc3ncnc(Nc4ccc(OCc5cccc(F)c5)c(Cl)c4)c3c2)o1 [Lapatinib] (partner 2 µM)
How it was run: as §1

Crizotinib + AZD7762 = compound: C[C@@H](Oc1cc(-c2cnn(C3CCNCC3)c2)cnc1N)c1c(Cl)ccc(F)c1Cl [Crizotinib] + NC(=O)Nc1cc(-c2cccc(F)c2)sc1C(=O)N[C@H]1CCCNC1 [AZD7762] (partner 0.2 µM)
How it was run: as §1

Cell Line	relative viability (Carfilzomib + Vorinostat; first compound 0.001 µM)	relative viability (Carfilzomib + Vorinostat; first compound 0.003162 µM)	relative viability (Carfilzomib + Vorinostat; first compound 0.01 µM)	relative viability (Carfilzomib + Vorinostat; first compound 0.03162 µM)	relative viability (Carfilzomib + Vorinostat; first compound 0.1 µM)	relative viability (Olaparib + Crizotinib; first compound 0.08 µM)	relative viability (Olaparib + Crizotinib; first compound 0.253 µM)	relative viability (Olaparib + Crizotinib; first compound 2.53 µM)	relative viability (Olaparib + Crizotinib; first compound 8 µM)	relative viability (Crizotinib + Lapatinib; first compound 0.01 µM)	relative viability (Crizotinib + Lapatinib; first compound 0.1 µM)	relative viability (Crizotinib + Lapatinib; first compound 0.3162 µM)	relative viability (Crizotinib + Lapatinib; first compound 1 µM)	relative viability (Crizotinib + AZD7762; first compound 0.01 µM)	relative viability (Crizotinib + AZD7762; first compound 0.03162 µM)	relative viability (Crizotinib + AZD7762; first compound 0.1 µM)	relative viability (Crizotinib + AZD7762; first compound 0.3162 µM)	relative viability (Crizotinib + AZD7762; first compound 1 µM)	relative viability (Crizotinib + Lapatinib; first compound 0.03162 µM)
201T	0.929	1	0.985	0.93	0.514	1.01	1	1.01	0.973	0.891	1.03	1.05	1.06	0.6	0.628	0.558	0.575	0.716	
A549						0.884	0.654	0.777	0.358	0.996	1.03		1.05						1.06
A-427	0.874	0.859	0.842	0.307	0.15	0.958	0.882	0.705	0.71	0.852	1.09		1.12	0.709	0.766	0.773		0.684	1.07
ABC-1	0.706	0.534	0.35	0.274	0.257	1.57	1.04	1.19	0.961	1.2	1.16	1.12	1.36	0.902	0.848	0.695	0.671	1.34	1.1
BEN	0.549	0.503	0.552	0.598	0.273	0.856	0.82	1	0.931	0.697	0.642	0.719	0.749	0.726	0.645	0.671	0.586	0.679	0.69
CAL-12T	0.722	0.794	0.77	0.487	0.121	0.917	0.575	0.95	0.572	0.664	0.658		0.608	0.527	0.679	0.624	0.635	0.694	0.771
COR-L23	0.454	0.438	0.212	0.0648	0.0718	0.852	0.58	0.515	0.274	0.835	0.983	0.985	0.985						1.1
COR-L 105	0.95	1	0.805	0.381	0.283	0.866	0.668	0.621	0.522	0.345	0.373	0.32	0.374						0.38
Calu-6						1.08	0.662	0.74	0.573	1.07	1.07	1.05	0.991						1.1
ChaGo-K-1	0.718	0.802	0.589	0.235	0.157	1.26	1.06	1.31	0.862					0.83	0.841	0.839	0.711	0.905	
EBC-1						0.206	0.178	0.203	0.186	0.213	0.197	0.206	0.205						0.223
EKVX	0.663	0.958	0.783	0.561	0.231	1.13	0.831	1.08	0.98	0.218	0.175	0.186	0.186	0.67	0.742	0.647	0.685	0.726	0.191
EMC-BAC-2	0.434	0.587	0.524	0.247	0.126	0.767	0.727	0.638	0.603	0.852	0.911	0.749	0.887	1.07	1.1	1.05		1.08	0.897
EPLC-272H	0.518	0.417	0.108	0.055	0.0448	1.06	0.751	1.07	0.864	0.861	0.945	0.9	1.11	0.209	0.19	0.263		0.35	0.996
H3255	0.546	0.954	0.929		0.811	0.901	0.913	0.885	0.814	0.254	0.234	0.238	0.219	0.833	0.88	0.819		0.923	0.267
HARA	0.507	0.561	0.501	0.436	0.0635	1.04	0.93	1.08	0.803	0.662	0.636	0.824	0.667	0.216	0.274	0.679	0.382	0.516	0.699
IA-LM	0.921	0.889	0.932	0.193	0.0116	1.14	0.877	0.583	0.54	0.861	0.738	0.822	0.641						0.954
